According to the supplement of paper PMC5908809:

Assays:
SNK-6 (IL-2 2.5 ng/mL) [1] = experiment: percent inhibition of viability; higher = more inhibition; details: 72 h
NKL (IL-2 2.5 ng/mL) [2] = experiment: as above; details: 72 h
YT (IL-2 2.5 ng/mL) [3] = experiment: as above; details: 72 h
[4] = system: normal primary NK cells, pool 1 (3 donors), resting (IL-2 0 ng/mL); experiment: as above; details: 72 h
NK-YS (IL-2 2.5 ng/mL) [5] = experiment: as above; details: 72 h
KHYG-1 (IL-2 2.5 ng/mL) [6] = experiment: as above; details: 72 h
NK-92 (IL-2 2.5 ng/mL) [7] = experiment: as above; details: 72 h
KAI3 (IL-2 2.5 ng/mL) [8] = experiment: as above; details: 72 h
[9] = system: normal primary NK cells, pool 2 (3 donors) (IL-2 2.5 ng/mL); experiment: as above; details: 72 h
[10] = system: normal primary NK cells, pool 3 (3 donors) (IL-2 2.5 ng/mL); experiment: as above; details: 72 h
DERL-7 (IL-2 2.5 ng/mL) [11] = experiment: as above; details: 72 h
[12] = system: normal primary NK cells, pool 1 (3 donors) (IL-2 2.5 ng/mL); experiment: as above; details: 72 h
IMC-1 (IL-2 20 ng/mL) [13] = experiment: as above; details: 72 h
[14] = system: normal NK cells expanded with K562-aAPC; experiment: drug sensitivity score (DSS) (DSS units); higher = more sensitive; extreme values may be limits of the assay; details: 72 h; IL-2 2.5 ng/mL
Description: (§1)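 Drug sensitivity and resistance testing on K562-aAPC-expanded normal NK cells: 5 concentrations (10-fold steps over a 10,000-fold range), 72 h at 37 °C, viability by CellTiter-Glo normalised to DMSO and benzethonium chloride controls; DSS from the fitted curve.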

[15] = system: normal NK cells expanded with K562-aAPC; experiment: percent inhibition of viability; higher = more inhibition; details: 72 h, IL-2 2.5 ng/mL
Description: as §1

SNK-6 (IL-2 2.5 ng/mL) [16] = experiment: drug sensitivity score (DSS) (DSS units); higher = more sensitive; extreme values may be limits of the assay; details: 72 h
NKL (IL-2 2.5 ng/mL) [17] = experiment: as above; details: 72 h
YT (IL-2 2.5 ng/mL) [18] = experiment: as above; details: 72 h
[19] = system: normal primary NK cells, pool 1 (3 donors), resting (IL-2 0 ng/mL); experiment: as above; details: 72 h
NK-YS (IL-2 2.5 ng/mL) [20] = experiment: as above; details: 72 h
KHYG-1 (IL-2 2.5 ng/mL) [21] = experiment: as above; details: 72 h
NK-92 (IL-2 2.5 ng/mL) [22] = experiment: as above; details: 72 h
KAI3 (IL-2 2.5 ng/mL) [23] = experiment: as above; details: 72 h
[24] = system: normal primary NK cells, pool 2 (3 donors) (IL-2 2.5 ng/mL); experiment: as above; details: 72 h
[25] = system: normal primary NK cells, pool 3 (3 donors) (IL-2 2.5 ng/mL); experiment: as above; details: 72 h
DERL-7 (IL-2 2.5 ng/mL) [26] = experiment: as above; details: 72 h
[27] = system: normal primary NK cells, pool 1 (3 donors) (IL-2 2.5 ng/mL); experiment: as above; details: 72 h
IMC-1 (IL-2 20 ng/mL) [28] = experiment: as above; details: 72 h

Cc1ccc(C(=O)N(CCCN)[C@@H](c2oc3cc(Cl)ccc3c(=O)c2Cc2ccccc2)C(C)C)cc1 (max concentration tested 100 nM)
percent inhibition of viability [%]
Details	0.01 nM	0.1 nM	1 nM	10 nM	100 nM
DERL-7 (IL-2 2.5 ng/mL) [11]	-6.36	-10.3	-3.04	12.1	100
IMC-1 (IL-2 20 ng/mL) [13]	-7.61	-1.73	0.06	99.8	101
KAI3 (IL-2 2.5 ng/mL) [8]	-6.39	-3.85	-7.56	25.9	57.9
KHYG-1 (IL-2 2.5 ng/mL) [6]	2.63	-2.09	3.33	98.1	108
NK-92 (IL-2 2.5 ng/mL) [7]	-6.69	-0.53	4.14	12.2	92.1
NK-YS (IL-2 2.5 ng/mL) [5]	-1.37	-2.68	5	71.1	80.5
NKL (IL-2 2.5 ng/mL) [2]	7.05	-6.08	0.2	79.2	94.4
SNK-6 (IL-2 2.5 ng/mL) [1]	-16.1	-20.8	5.75	78	91.8
YT (IL-2 2.5 ng/mL) [3]	-0.9	-3.95	-3.98	6.11	67.4
[4]	-14	-28.1	6.55	-12.4	0.78
[9]	-6.06	-2.94	7.66	13.1	9.78
[10]	-4.72	-7.26	16.7	13.5	15.5
[12]	-6.46	-14.6	7.89	0.13	9.64
[15]	0.7	-0.13	0.62	47.5	60.9

Details	drug sensitivity score
DERL-7 (IL-2 2.5 ng/mL) [26]	7.54
IMC-1 (IL-2 20 ng/mL) [28]	17.9
KAI3 (IL-2 2.5 ng/mL) [23]	6.54
KHYG-1 (IL-2 2.5 ng/mL) [21]	18.2
NK-92 (IL-2 2.5 ng/mL) [22]	7.14
NK-YS (IL-2 2.5 ng/mL) [20]	13.7
NKL (IL-2 2.5 ng/mL) [17]	14.5
SNK-6 (IL-2 2.5 ng/mL) [16]	15
YT (IL-2 2.5 ng/mL) [18]	4.68
[14]	8.92
[19]	0
[24]	1.26
[25]	3.16
[27]	0
